Data published in article PMC7764606 (Cancers, 2020).
Where two headings read alike, the source gives them in different places.

How the values were obtained:
[1] = recommended dose 200 mg/day, cited from earlier work
recombinant AKR1C3 = molecular target: T1, recombinant AKR1C3 (Homo sapiens, UniProt P42330); test: Reduction of Dau by recombinant AKR1C3 (UHPLC detection of Dau-ol); type: biochemical; conditions: for reduction of AKR1C3 activity (Dau reduction): Dau 500 µM, relative to DMSO; for Ki: read-out: Ki^app (Morrison equation for tight-binding inhibitors)
T1 construct: made in house; host or cells: Escherichia coli
T1 sequence (P42330 1-323): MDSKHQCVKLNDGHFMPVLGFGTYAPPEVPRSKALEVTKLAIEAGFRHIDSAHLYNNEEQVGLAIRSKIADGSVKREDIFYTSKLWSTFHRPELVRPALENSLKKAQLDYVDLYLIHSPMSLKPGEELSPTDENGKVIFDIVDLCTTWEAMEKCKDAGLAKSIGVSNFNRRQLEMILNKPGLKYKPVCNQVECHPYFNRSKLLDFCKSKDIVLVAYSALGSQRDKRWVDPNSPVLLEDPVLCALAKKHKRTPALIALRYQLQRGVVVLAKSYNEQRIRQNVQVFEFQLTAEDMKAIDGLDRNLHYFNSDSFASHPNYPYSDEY
Experimental: Human recombinant CREs (CBR1, AKR1A1, 1B1, 1B10, 7A2, and 1C3) were produced by an Escherichia coli expression system as per methods described previously. For the inhibitory assay, each recombinant enzyme, CBR1 (1 µg), AKR1A1 (1 µg), AKR1B1 (5 µg), AKR1B10 (5 µg), AKR7A2 (3 µg), or AKR1C3 (1.5 µg) was incubated with BTK inhibitors at different concentrations (10 and 50 µM) and the substrate Dau (500 µM). For analysis using the Lineweaver-Burk plot, 1.5 µg of recombinant AKR1C3 was incubated with DMSO or BTK inhibitors (1, 5, and 10 µM) and Dau (200, 400, 600, 800, 1000, and 2000 µM). […] The incubations and further metabolite detection were further performed by using ultra-high-performance liquid chromatography (UHPLC) as per methods described previously.

[2] = test system: AKR1C3 expression in A549 cells; test: AKR1C3 protein levels in A549 cells by western blotting; type: cell-based, human; conditions: 1, 5 and 10 µM, 72 h, western blot relative to β-actin
Experimental: A549 cells were incubated with DMSO or BTK inhibitors (1, 5, and 10 µM) for 72 h, and then total protein was extracted for analysis of AKR1C3 expression by western blotting (WB) as per methods described previously. A representative WB is shown for IBR (A) and ACA (B) incubations, and bars represent AKR1C3 protein levels as determined by densitometry relative to β-actin (n = 3, mean ± SD). Uncropped images from WB are available in Figure S1 in the Supplementary Materials. On the other hand, HCT116-EV and HCT116-C3 cells were treated with increasing concentrations of IBR (C) and ACA (D) for 72 h, and their viability was assessed by MTT assay. Graphs represent a comparison of the dose-response curves for percentages of cell viability in each cell line (n = 6, mean ± SD).

HCT116-EV cells = test: MTT cell viability, HCT116-EV cells (incl. Chou-Talalay analysis); type: cell-based, human
Experimental: HCT116 cells were seeded (1.25 × 10^5 cells/well) in 24-well plates and cultured for 24 h. For the transient expression of the recombinant human AKR1C3, the cells were transfected with a pCI_AKR1C3 or empty pCI plasmid as control (previously described in a study by Hofman et al.) according to the manufacturer’s instructions (jetPRIME® Transfection Reagent; Polyplus Transfection®, Illkirch, France). For each 24-well plate, a mixture of 0.75 µL of the jetPRIME® Transfection Reagent and 0.25 µg of plasmid was incubated for 10 min at room temperature. Then, polyplexes were added to the HCT116 cells with 0.5 mL of fresh DMEM supplemented with 10% FBS and incubated for 24 h (37 °C, 5% CO2). The expression of recombinant AKR1C3 was verified by western blotting as per methods described previously.
Twenty-four hours prior to the experiment, transfected HCT116 cells (8 × 10^3 cells/well) or A549 cells (5 × 10^3 cells/well) were seeded in 96-well plates. The cell culture medium was replaced with fresh medium containing increasing amounts of Dau (final concentrations: 0.01, 0.05, 0.1, 0.25, 0.5, 0.75, 1, and 10 µM) with or without BTK inhibitors (final concentrations: 1, 5, and 10 µM). After 72 h of incubation under standard conditions (37 °C, 5% CO2), cell viability was assessed by MTT (Sigma-Aldrich, Prague, Czech Republic) assay. For this, 50 µL of the MTT solution (3 mg/mL) was added to each well and incubated for 30 min. The supernatant was collected, and the cell monolayers were dissolved in 100 µL of DMSO. The absorbance was measured at 570 and 690 nm by a microplate reader Infinite M200 (Tecan, Salzburg, Austria), and the background values at 690 nm were subtracted from the absorbance obtained at 570 nm. The half-maximal inhibitory concentrations (IC50) were calculated using GraphPad Prism 8.1.2. The drug combination pharmacodynamics were determined by the Chou-Talalay method using the CompuSyn ver. 3.0.1 software (ComboSyn Inc., Paramus, NJ, USA).

[3] = BTK-inhibitor 5 µM + Dau 0.25 µM
[4] = BTK-inhibitor 5 µM + Dau 0.50 µM
[5] = BTK-inhibitor 5 µM + Dau 0.75 µM
[6] = BTK-inhibitor 5 µM + Dau 1.00 µM
[7] = BTK-inhibitor 10 µM + Dau 0.25 µM
[8] = BTK-inhibitor 10 µM + Dau 0.50 µM
[9] = BTK-inhibitor 10 µM + Dau 0.75 µM
[10] = BTK-inhibitor 10 µM + Dau 1.00 µM

SMILES: CC#CC(=O)N1CCC[C@H]1c1nc(-c2ccc(C(=O)Nc3ccccn3)cc2)c2c(N)nccn12 [Acalabrutinib, acalabrutinib]
- approximate Cmax [1]: ~825 ng/mL
- Cmax ([1]; read-out: approximate Cmax): ~1800 nM
- reduction of AKR1C3 activity (Dau reduction) (recombinant AKR1C3; 10 µM BTK inhibitor): 89.55% ± 4%
- reduction of AKR1C3 activity (Dau reduction) (recombinant AKR1C3; 50 µM BTK inhibitor): 96.28% ± 1.58%
- Ki (recombinant AKR1C3; AKR1C3 0.005 mg/mL (0.135 μM)): 451 nM
- Ki (recombinant AKR1C3; AKR1C3 0.015 mg/mL (0.405 μM)): 521 nM
- Ki (recombinant AKR1C3; AKR1C3 0.030 mg/mL (0.811 μM)): 566 nM
- mode of inhibition (Lineweaver-Burk plot) (recombinant AKR1C3; recombinant AKR1C3 with increasing Dau): non-competitive/mixed
- effect on expression (protein levels) of AKR1C3 [2]: negligible or absence of effects
- Combination index (CI) (HCT116-EV cells; [3]): 0.64 ± 0.07
- Dose reduction index for Dau (HCT116-EV cells; [3]): 1.59 ± 0.16
- Fraction affected (Fa %) (HCT116-EV cells; [3]): 57.98 ± 10.7%
- Combination index (CI) (HCT116-EV cells; [4]): 0.80 ± 0.02
- Dose reduction index for Dau (HCT116-EV cells; [4]): 1.26 ± 0.03
- Fraction affected (Fa %) (HCT116-EV cells; [4]): 76.14 ± 4.55%
- Combination index (CI) (HCT116-EV cells; [5]): 0.73 ± 0.05
- Dose reduction index for Dau (HCT116-EV cells; [5]): 1.38 ± 0.09
- Fraction affected (Fa %) (HCT116-EV cells; [5]): 88.86 ± 2.18%
- Combination index (CI) (HCT116-EV cells; [6]): 0.93 ± 0.17
- Dose reduction index for Dau (HCT116-EV cells; [6]): 1.10 ± 0.20
- Fraction affected (Fa %) (HCT116-EV cells; [6]): 89.81 ± 0.07%
- Combination index (CI) (HCT116-EV cells; [7]): 0.64 ± 0.01
- Dose reduction index for Dau (HCT116-EV cells; [7]): 1.60 ± 0.00
- Fraction affected (Fa %) (HCT116-EV cells; [7]): 58.22 ± 6.27%
- Combination index (CI) (HCT116-EV cells; [8]): 0.68 ± 0.05
- Dose reduction index for Dau (HCT116-EV cells; [8]): 1.48 ± 0.11
- Fraction affected (Fa %) (HCT116-EV cells; [8]): 81.17 ± 2.72%
- Combination index (CI) (HCT116-EV cells; [9]): 0.62 ± 0.12
- Dose reduction index for Dau (HCT116-EV cells; [9]): 1.65 ± 0.31
- Fraction affected (Fa %) (HCT116-EV cells; [9]): 91.66 ± 0.08%
- Combination index (CI) (HCT116-EV cells; [10]): 0.88 ± 0.12
- Dose reduction index for Dau (HCT116-EV cells; [10]): 1.15 ± 0.15
- Fraction affected (Fa %) (HCT116-EV cells; [10]): 90.59 ± 0.95%
- IC50 (HCT116-EV cells; Homo sapiens, 72 h MTT, read-out: IC50 of BTK inhibitor alone (cell viability)): 33 µM
